Where “and” joins values, the source holds several entries; their conditions need not be identical. Equal entries are not always repeated. Entries after “also recorded” stand apart in the source; their conditions may differ.
Columns and labels:
F. graminearum = system: F. graminearum; design: species or system F. graminearum strain Fg-1 on soybean; conditions: in vivo
BmCDA7 = BmCDA7 (Bombyx mori, UniProt H9JW44)
Source text: Effect o f BHA o n the activity of BmCDA7 from the insect Bombyx
mori. Bars in all graphs represent mean values, whiskers represent mean ± SEM, and black

GhRbohD = system: GhRbohD; design: species or system Gossypium hirsutum cv. Lvmian; conditions: in vivo
GhMPK6 = system: GhMPK6; design: species or system Gossypium hirsutum cv. Lvmian; conditions: in vivo
T. harzianum T27 = assay type: cell-based, Trichoderma harzianum
[1] = system: P. striiformis f. sp. tritici (strain CYR32); design: species or system P. striiformis f. sp. tritici on wheat; conditions: in vivo
V. dahliae = conditions: in vivo
VdPDA1 [2] = target: T1, VdPDA1 (Verticillium dahliae, UniProt G2X9U7); assay: biochemical
Procedure: The enzymatic activity of recombinantly expressed proteins was assayed using a fluorogenic labeling method[29]. The reaction mixture consisted of 100 μL of 100 nM testing enzyme and 0.5 mM (GlcNAc)3 in a 50 mM Hepes (pH 7.5) buffer. After incubation for 10 min at 30 °C, free amine production was measured using fluorescamine labeling and quantified with a glucosamine standard. All measurements were carried out in triplicate.
The compounds were screened to identify the small molecules inhibiting VdPDA1 and Pst_13661 using a liquid-handling robot. The compounds were prepared in a 96-well plate containing one compound per well at 10 mM each in 100% DMSO (except for BHA, which was dissolved in ddH2O). The plates were first diluted to 5 mM. The compounds were screened at 100 μM in 2% DMSO in a final reaction volume of 100 μL, containing 100 nM enzyme and 0.5 mM (GlcNAc)3 in 50 mM Hepes (pH 7.5) buffer. Negative enzyme-free controls and positive controls with and without DMSO were prepared. The plates were incubated at 30 °C for 10 min. All measurements were carried out in triplicate.
For the determination of the inhibition constants Ki, three substrate (GlcNAc)3 concentrations (0.5, 0.2, and 0.1 mM) and varied inhibitor concentrations were used. The Ki values were determined using Dixon plots[56]. In Dixon plots, the value of lines intersection that converges above the x-axis is denoted as Ki. […]

F. oxysporum = system: F. oxysporum; design: species or system F. oxysporum strain Fo-2 on soybean; conditions: in vivo
V. dahliae strain V991 = assay type: cell-based, Verticillium dahliae
[3] = system: F. graminearum strain Fg-1; assay type: cell-based
R. solani strain RS-1 = assay type: cell-based
F. oxysporum strain Fo-2 = assay type: cell-based
R. solani = system: R. solani; design: species or system R. solani strain RS-1 on soybean; conditions: in vivo
Pst_13661 = Pst_13661 (Puccinia striiformis f. sp. tritici, UniProt A0A0L0V0Y3, T32S); assay type: biochemical
VdPDA1 [4] = target: T1, VdPDA1; assay type: biochemical

Sequence of BmCDA7 (H9JW44 16-364): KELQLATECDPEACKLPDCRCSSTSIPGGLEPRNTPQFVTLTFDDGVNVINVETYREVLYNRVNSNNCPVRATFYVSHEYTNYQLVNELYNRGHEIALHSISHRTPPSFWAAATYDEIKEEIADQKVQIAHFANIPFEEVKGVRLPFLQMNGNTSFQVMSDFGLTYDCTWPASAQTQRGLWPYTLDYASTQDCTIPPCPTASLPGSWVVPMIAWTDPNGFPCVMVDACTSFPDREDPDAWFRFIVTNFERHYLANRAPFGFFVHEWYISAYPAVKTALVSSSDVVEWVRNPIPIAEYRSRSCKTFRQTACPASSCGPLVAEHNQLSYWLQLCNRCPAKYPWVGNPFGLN

O=C(NO)c1ccccc1 [Compound 1, benzohydroxamic acid]
Fungal biomass of soybean hypocotyls (F. graminearum): significantly reduced fungal biomass | Lesions on soybean hypocotyls (F. graminearum): fewer lesions | Activity of BmCDA7 (Fig. S4), Mean (BmCDA7): 101.71 and 105.43 | Inhibition of insect chitin deacetylases (BmCDA7): could not inhibit | GhRbohD expression in cotton roots (GhRbohD): upregulated | GhMPK6 expression in cotton roots (GhMPK6): upregulated | Fungal growth (Fig. S3b), Mean (T. harzianum T27): 3.65 and 3.63 | Growth of Trichoderma harzianum (T. harzianum T27): does not affect the growth | Disease indices after P. striiformis f. sp. tritici infection of wheat plants [1]: greatly declined | Fungal biomass on cotton plants (V. dahliae): significantly reduced | Fungal biomass on cotton plants (Fig. 3c) Mean (V. dahliae): 0.5294 and 0.2725 | Wilt symptoms of cotton plants (V. dahliae): did not exhibit wilt symptoms | Ki (VdPDA1 [2]): 8.31 µM | Fungal biomass of soybean hypocotyls (F. oxysporum): significantly reduced fungal biomass | Fungal biomass of soybean hypocotyls (Fig. 5h) Mean (F. oxysporum): 0.6738 and 0.6606 and 0.4822 | Lesions on soybean hypocotyls (F. oxysporum): fewer lesions | Colony morphology and hyphae growth of V. dahliae (V. dahliae strain V991): not affected | Fungal growth (Fig. S3b), Mean (V. dahliae strain V991): 3.65 and 3.60 and 3.58 | Fungal growth (Fig. S3b), Mean [3]: 4.15 and 4.13 and 4.08 | Growth and morphology of F. graminearum [3]: normal morphology and developmental status; also recorded: does not affect the growth | Fungal growth (Fig. S3b), Mean (R. solani strain RS-1): 3.03 and 3.13 | Growth and morphology of R. solani (R. solani strain RS-1): normal morphology and developmental status; also recorded: does not affect the growth | Fungal growth (Fig. S3b), Mean (F. oxysporum strain Fo-2): 2.98 and 2.90 and 2.95 | Growth and morphology of F. oxysporum (F. oxysporum strain Fo-2): normal morphology and developmental status; also recorded: does not affect the growth | Fungal biomass of soybean hypocotyls (R. solani): significantly reduced fungal biomass | Lesions on soybean hypocotyls (R. solani): fewer lesions

O=C(O)c1cccc(C(=O)O)n1 [DPA]
Fig. S1c enzyme activity, Exp1 (Pst_13661): 4.96 | Fig. S1c enzyme activity, Exp2 (Pst_13661): 8.16 | Fig. S1c enzyme activity, Exp3 (Pst_13661): 14.56 | Fig. S1c enzyme activity, Mean (Pst_13661): 9.23 | Fig. S1d enzyme activity, Exp1 (VdPDA1 [4]): 0.31 | Fig. S1d enzyme activity, Exp2 (VdPDA1 [4]): -0.24 | Fig. S1d enzyme activity, Exp3 (VdPDA1 [4]): -0.41 | Fig. S1d enzyme activity, Mean (VdPDA1 [4]): -0.11

[Ni+2] [Ni2+]
Fig. S1c enzyme activity, Exp1 (Pst_13661): 49.78 | Fig. S1c enzyme activity, Exp2 (Pst_13661): 47.40 | Fig. S1c enzyme activity, Exp3 (Pst_13661): 46.47 | Fig. S1c enzyme activity, Mean (Pst_13661): 47.88 | Fig. S1d enzyme activity, Exp1 (VdPDA1 [4]): 36.44 | Fig. S1d enzyme activity, Exp2 (VdPDA1 [4]): 38.96 | Fig. S1d enzyme activity, Exp3 (VdPDA1 [4]): 38.03 | Fig. S1d enzyme activity, Mean (VdPDA1 [4]): 37.81

[Zn+2] [Zn2+]
Fig. S1c enzyme activity, Exp1 (Pst_13661): 97.91 | Fig. S1c enzyme activity, Exp2 (Pst_13661): 92.55 | Fig. S1c enzyme activity, Exp3 (Pst_13661): 105.61 | Fig. S1c enzyme activity, Mean (Pst_13661): 98.69 | Fig. S1d enzyme activity, Exp1 (VdPDA1 [4]): 76.18 | Fig. S1d enzyme activity, Exp2 (VdPDA1 [4]): 78.11 | Fig. S1d enzyme activity, Exp3 (VdPDA1 [4]): 78.27 | Fig. S1d enzyme activity, Mean (VdPDA1 [4]): 77.52
